Measured values from the supplement of paper PMC10307832.

What was measured:
Assay in all cases: relative viability (nuclei count vs DMSO), 5 days (fraction); higher = more cells survive
17-AAG + Trametinib = compound: C=CCNC1=C2C[C@@H](C)C[C@H](OC)[C@H](O)[C@@H](C)/C=C(\C)[C@H](OC(N)=O)[C@@H](OC)/C=C\C=C(/C)C(=O)NC(=CC1=O)C2=O [17-AAG] + CC(=O)Nc1cccc(-n2c(=O)n(C3CC3)c(=O)c3c(Nc4ccc(I)cc4F)n(C)c(=O)c(C)c32)c1 [Trametinib] (partner 0.02 µM)
Method in brief: (§1)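 Lung cancer cell lines in 1536-well plates were dosed by pin tool the day after seeding, either with one drug alone or with a fixed anchor-drug dose plus five library-drug doses (not always all listed) in √10 steps. After 5 days, cells were fixed and their nuclei stained in one step (final 0.05% Triton X-100, 1% formaldehyde, 1 ug/ml Hoechst), then counted on 4× images. Relative viability is the nuclei count in treated wells divided by that in vehicle wells. Values are medians of duplicate plates.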

17-AAG + Phenformin = compound: C=CCNC1=C2C[C@@H](C)C[C@H](OC)[C@H](O)[C@@H](C)/C=C(\C)[C@H](OC(N)=O)[C@@H](OC)/C=C\C=C(/C)C(=O)NC(=CC1=O)C2=O [17-AAG] + N=C(N)NC(=N)NCCc1ccccc1 [Phenformin] (partner 250 µM)
Method in brief: as §1

17-AAG + Pemetrexed = compound: C=CCNC1=C2C[C@@H](C)C[C@H](OC)[C@H](O)[C@@H](C)/C=C(\C)[C@H](OC(N)=O)[C@@H](OC)/C=C\C=C(/C)C(=O)NC(=CC1=O)C2=O [17-AAG] + Nc1nc2[nH]cc(CCc3ccc(C(=O)N[C@@H](CCC(=O)O)C(=O)O)cc3)c2c(=O)[nH]1 [Pemetrexed] (partner 0.2 µM)
Method in brief: as §1

17-AAG + Navitoclax = compound: C=CCNC1=C2C[C@@H](C)C[C@H](OC)[C@H](O)[C@@H](C)/C=C(\C)[C@H](OC(N)=O)[C@@H](OC)/C=C\C=C(/C)C(=O)NC(=CC1=O)C2=O [17-AAG] + CC1(C)CCC(c2ccc(Cl)cc2)=C(CN2CCN(c3ccc(C(=O)NS(=O)(=O)c4ccc(N[C@H](CCN5CCOCC5)CSc5ccccc5)c(S(=O)(=O)C(F)(F)F)c4)cc3)CC2)C1 [Navitoclax] (partner 0.5 µM)
Method in brief: as §1

Cell Line	relative viability (17-AAG + Trametinib; first compound 0.00128 µM)	relative viability (17-AAG + Trametinib; first compound 0.004048 µM)	relative viability (17-AAG + Trametinib; first compound 0.0128 µM)	relative viability (17-AAG + Trametinib; first compound 0.04048 µM)	relative viability (17-AAG + Trametinib; first compound 0.128 µM)	relative viability (17-AAG + Phenformin; first compound 0.00128 µM)	relative viability (17-AAG + Phenformin; first compound 0.004048 µM)	relative viability (17-AAG + Phenformin; first compound 0.0128 µM)	relative viability (17-AAG + Phenformin; first compound 0.04048 µM)	relative viability (17-AAG + Phenformin; first compound 0.128 µM)	relative viability (17-AAG + Pemetrexed; first compound 0.00128 µM)	relative viability (17-AAG + Pemetrexed; first compound 0.004048 µM)	relative viability (17-AAG + Pemetrexed; first compound 0.0128 µM)	relative viability (17-AAG + Pemetrexed; first compound 0.04048 µM)	relative viability (17-AAG + Pemetrexed; first compound 0.128 µM)	relative viability (17-AAG + Navitoclax; first compound 0.00128 µM)	relative viability (17-AAG + Navitoclax; first compound 0.004048 µM)	relative viability (17-AAG + Navitoclax; first compound 0.0128 µM)	relative viability (17-AAG + Navitoclax; first compound 0.04048 µM)	relative viability (17-AAG + Navitoclax; first compound 0.128 µM)
NCI-H838	0.536	0.487	0.126	0.115	0.1	0.543	0.327	0.118	0.132	0.0945	0.258	0.313	0.208	0.133	0.154	1.15	1.12	1.07	0.165	0.166
NCI-H2085	0.608	0.607	0.604	0.594	0.314	0.688	0.734	0.68	0.595	0.406	0.944	0.923	0.911	0.877	0.828	1.08	1.11	1.18	1.11	0.808
NCI-H1395	1.09	0.984	0.807	0.448	0.368	0.449	0.425	0.4	0.358	0.324	0.86	0.938	0.494	0.349	0.354	1.03	1.29	0.698	0.458	0.344
NCI-H1648	–	0.541	0.463	0.368	0.219	–	–	–	–	–	–	0.904	0.649	0.29	0.288	–	–	–	–	–
NCI-H520	0.706	0.673	0.468	0.154	0.129	0.617	0.511	0.406	0.234	0.165	0.604	0.7	0.261	0.127	0.129	1.09	0.836	1.03	0.19	0.161
A549	–	–	–	–	–	0.154	0.0295	0.0354	0.0477	0.03	–	–	–	–	–	1.13	0.542	0.0729	0.0453	0.044
IA-LM	–	–	–	–	–	–	–	–	–	–	–	–	–	–	–	0.901	0.784	0.757	0.237	0.0731
EKVX	0.341	0.306	0.289	0.127	0.117	0.26	0.222	0.139	0.195	0.0638	0.475	0.381	0.491	0.17	0.131	0.997	0.937	0.934	0.242	0.165
ChaGo-K-1	0.918	0.873	0.767	0.857	0.735	0.444	0.587	0.422	0.273	0.163	0.25	0.276	0.264	0.253	0.204	0.949	1.11	0.897	0.441	0.273
SW 900	0.587	0.513	0.208	0.128	0.153	0.577	0.37	0.13	0.0856	0.0981	0.455	0.437	0.242	0.139	0.168	–	–	–	–	–
